Like-named read-outs stand apart in the source and are kept apart here.
Tests used:
[1] = design: method as in PMID 26870389; conditions: review on cardiovascular effects; cited from earlier work
ABCC4 = target: T1, ABCC4 (Homo sapiens, UniProt O15439); assay: biochemical; format: biochemical; conditions: for Ki: Cheng-Prusoff, read-out: Ki for inhibition of cAMP-efflux; for [cAMP-efflux inhibition]/[cGMP-efflux inhibition]: ratio between IC50-values; for IC50: read-out: IC50 for inhibition of cAMP-efflux
T1 construct: inside-out vesicles (IOV)s where erythrocytes from healthy, human donors were sampled; endogenous in cells; host or cells: inside-out vesicles from erythrocytes of healthy human donors
T1 sequence (O15439 1-1325): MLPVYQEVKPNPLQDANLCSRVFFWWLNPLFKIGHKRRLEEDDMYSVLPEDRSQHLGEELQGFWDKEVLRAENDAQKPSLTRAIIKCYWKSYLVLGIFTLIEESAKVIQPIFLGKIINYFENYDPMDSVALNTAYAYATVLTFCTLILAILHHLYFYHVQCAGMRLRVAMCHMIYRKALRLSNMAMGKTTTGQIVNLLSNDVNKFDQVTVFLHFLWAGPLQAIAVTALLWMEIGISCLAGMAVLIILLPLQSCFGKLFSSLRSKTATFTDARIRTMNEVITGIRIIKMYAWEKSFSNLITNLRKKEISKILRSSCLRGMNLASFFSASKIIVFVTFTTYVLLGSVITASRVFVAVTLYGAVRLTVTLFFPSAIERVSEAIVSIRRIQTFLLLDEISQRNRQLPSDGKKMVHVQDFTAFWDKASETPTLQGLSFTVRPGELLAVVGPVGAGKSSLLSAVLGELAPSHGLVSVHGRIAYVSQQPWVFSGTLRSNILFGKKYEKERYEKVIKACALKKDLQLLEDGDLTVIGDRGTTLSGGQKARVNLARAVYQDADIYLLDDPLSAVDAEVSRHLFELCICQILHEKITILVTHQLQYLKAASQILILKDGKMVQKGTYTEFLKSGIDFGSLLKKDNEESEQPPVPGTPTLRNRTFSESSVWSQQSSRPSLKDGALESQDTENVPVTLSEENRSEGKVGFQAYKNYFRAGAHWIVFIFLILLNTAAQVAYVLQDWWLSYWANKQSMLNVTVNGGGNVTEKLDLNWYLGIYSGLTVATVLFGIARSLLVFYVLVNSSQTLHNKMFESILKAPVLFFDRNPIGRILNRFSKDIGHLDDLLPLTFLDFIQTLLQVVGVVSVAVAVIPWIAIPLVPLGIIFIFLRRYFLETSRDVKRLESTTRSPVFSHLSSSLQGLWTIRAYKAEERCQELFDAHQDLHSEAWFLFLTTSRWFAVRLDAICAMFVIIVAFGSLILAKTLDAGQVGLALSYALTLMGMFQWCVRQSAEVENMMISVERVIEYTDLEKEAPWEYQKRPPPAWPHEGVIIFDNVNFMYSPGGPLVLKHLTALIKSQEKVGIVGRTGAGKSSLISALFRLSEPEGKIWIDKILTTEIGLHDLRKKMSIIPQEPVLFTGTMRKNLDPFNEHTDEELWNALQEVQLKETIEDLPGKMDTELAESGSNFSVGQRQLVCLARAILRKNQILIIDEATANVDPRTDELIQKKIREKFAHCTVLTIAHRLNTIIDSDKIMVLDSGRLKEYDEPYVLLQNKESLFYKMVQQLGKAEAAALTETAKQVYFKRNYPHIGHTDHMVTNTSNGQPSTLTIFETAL
Method: (§1) Cellular efflux was estimated with inside-out vesicles (IOV)s where erythrocytes from healthy, human donors were sampled. Donors were pre-screened and only admitted as donors by Blodbanken UNN (Department of Immunohematology and Transfusion Medicine, University Hospital of North Norway) if they were healthy. The erythrocytes were separated from plasma by centrifugation and washed. Inside-out vesicles were prepared according to Orvoll et al. with minor modifications. Percentage IOV was verified using acetylcholinesterase accessibility test. Batches of IOVs used in the parallels were made 8 times, including blood from a total of 35 healthy donors.
(§2) IOVs were then incubated with or without 2 mM ATP and 7 different concentrations of pentoxifylline increasing by a factor of 10 ranging from 1.00 nM to 1.00 mM. The incubation solutions also included radioactive labeled [^3H]-cGMP or [^3H]-cAMP (Perkin Elmer, Boston, MA, USA), at a concentration of respectively 2 µM and 20 µM. [^3H]-cAMP was used to assess ABCC4-inhibition and [^3H]-cGMP for ABCC5-inhibition. The assays were performed in triplicates at 3 different days: In total 9 parallels were performed to calculate results for each concentration of pentoxifylline at all temperatures. Incubation time of 60 min was chosen to ensure sufficient quality of the samples for each parallel. The transport was stopped by adding ice cold buffer. The IOVs were then filtered through a nitrocellulose membrane (Bio-Rad Laboratories, Feldkirchen Germany), and the membrane was dried. The dried membranes were later added scintillation fluid and radioactivity was measured using a Packard TopCount NXT (Packard, Downers Grove, IL, USA).
(§3) Analysis and graph production were performed in SigmaPlot 14.0 (Systat Software, San Jose, CA, USA.). Ability to inhibit the different elimination pathways, enzymes and efflux pumps, were calculated as IC50-values, as according to Chou. Ki-values were obtained by using the methods described by Cheng and Prustoff. Measurement of intracellular concentrations of drugs were adjusted for protein concentrations in each sample. The incubation concentrations were also adjusted for protein concentration in each sample to evaluate the access in percentage. […] The same analysis was performed for intracellular concentrations of pentoxifylline during hypothermia compared to baseline (37 °C). When data was not normally distributed ANOVA on ranks and Dunn`s post hoc test was performed. Data are presented as mean ± standard error of the mean (SEM). p-values were considered significant when < 0.05.

Recombinant human PDE3 = assay: Inhibition of PDE3-mediated enzymatic breakdown of cAMP; format: biochemical; conditions: for Ki: Cheng-Prusoff; for [PDE3-inhibition]/[PDE5-inhibition] / [PDE3-inhibition]/[cAMP-efflux inhibition]: ratio between IC50-values
Method: (§4) Assessment of pentoxifyllines ability to inhibit the phosphodiesterase enzymes were performed by incubating cAMP or cGMP with seven different concentrations of pentoxifylline. The concentrations were increasing by a factor of 10 ranging from 1.00 nM to 1.00 mM. For PDE3 assessment, the incubation solution included cAMP and for PDE5 assessment it included cGMP. Experiments were performed in triplicates each day at three separate days - in total 9 parallels. The reaction was started by adding either a solution containing 0.016 units/µg protein of PDE3 (Abcam, Cambridge UK), or 0.022 units/µg protein of PDE5 (Sigma-Aldrich, St. Louis, USA), to the Eppendorf tubes. Control samples were free of drug and was either with or without PDE3 or PDE5. This was done to assure that only the relevant PDE was responsible for breakdown of the cyclic nucleotide, as no other enzyme nor cellular material was added to the incubations. The incubation time was 30 min. Reaction was stopped by adding methanol to the tubes. Internal standard of cGMP/GMP or cAMP/AMP (Sigma-Aldrich, St. Louis, MO, USA, Germany and Toronto Research Chemicals Inc., Ontario, Canada) were added to each sample. 5 samples contained only known concentrations of cGMP/GMP or cAMP/AMP and served as calibrators. Samples were analyzed for cGMP/GMP and cAMP/AMP content, using MS [14, 15].
Quantification of cAMP/AMP, cGMP/GMP and pentoxifylline in PDE- and intracellular access experiments were performed with liquid chromatography tandem mass spectrometry (LC–MS/MS). Preparation of samples for LC–MS/MS-analysis is described in paragraphs above.
as §3

ABCC5 = target: T2, ABCC5 (Homo sapiens, UniProt O15440); assay: Inhibition of [3H]-cGMP efflux in erythrocyte inside-out vesicles; format: biochemical; conditions: for Ki: Cheng-Prusoff
T2 construct: inside-out vesicles (IOV)s where erythrocytes from healthy, human donors were sampled; endogenous in cells; host or cells: inside-out vesicles from erythrocytes of healthy human donors
T2 sequence (O15440 whole entry): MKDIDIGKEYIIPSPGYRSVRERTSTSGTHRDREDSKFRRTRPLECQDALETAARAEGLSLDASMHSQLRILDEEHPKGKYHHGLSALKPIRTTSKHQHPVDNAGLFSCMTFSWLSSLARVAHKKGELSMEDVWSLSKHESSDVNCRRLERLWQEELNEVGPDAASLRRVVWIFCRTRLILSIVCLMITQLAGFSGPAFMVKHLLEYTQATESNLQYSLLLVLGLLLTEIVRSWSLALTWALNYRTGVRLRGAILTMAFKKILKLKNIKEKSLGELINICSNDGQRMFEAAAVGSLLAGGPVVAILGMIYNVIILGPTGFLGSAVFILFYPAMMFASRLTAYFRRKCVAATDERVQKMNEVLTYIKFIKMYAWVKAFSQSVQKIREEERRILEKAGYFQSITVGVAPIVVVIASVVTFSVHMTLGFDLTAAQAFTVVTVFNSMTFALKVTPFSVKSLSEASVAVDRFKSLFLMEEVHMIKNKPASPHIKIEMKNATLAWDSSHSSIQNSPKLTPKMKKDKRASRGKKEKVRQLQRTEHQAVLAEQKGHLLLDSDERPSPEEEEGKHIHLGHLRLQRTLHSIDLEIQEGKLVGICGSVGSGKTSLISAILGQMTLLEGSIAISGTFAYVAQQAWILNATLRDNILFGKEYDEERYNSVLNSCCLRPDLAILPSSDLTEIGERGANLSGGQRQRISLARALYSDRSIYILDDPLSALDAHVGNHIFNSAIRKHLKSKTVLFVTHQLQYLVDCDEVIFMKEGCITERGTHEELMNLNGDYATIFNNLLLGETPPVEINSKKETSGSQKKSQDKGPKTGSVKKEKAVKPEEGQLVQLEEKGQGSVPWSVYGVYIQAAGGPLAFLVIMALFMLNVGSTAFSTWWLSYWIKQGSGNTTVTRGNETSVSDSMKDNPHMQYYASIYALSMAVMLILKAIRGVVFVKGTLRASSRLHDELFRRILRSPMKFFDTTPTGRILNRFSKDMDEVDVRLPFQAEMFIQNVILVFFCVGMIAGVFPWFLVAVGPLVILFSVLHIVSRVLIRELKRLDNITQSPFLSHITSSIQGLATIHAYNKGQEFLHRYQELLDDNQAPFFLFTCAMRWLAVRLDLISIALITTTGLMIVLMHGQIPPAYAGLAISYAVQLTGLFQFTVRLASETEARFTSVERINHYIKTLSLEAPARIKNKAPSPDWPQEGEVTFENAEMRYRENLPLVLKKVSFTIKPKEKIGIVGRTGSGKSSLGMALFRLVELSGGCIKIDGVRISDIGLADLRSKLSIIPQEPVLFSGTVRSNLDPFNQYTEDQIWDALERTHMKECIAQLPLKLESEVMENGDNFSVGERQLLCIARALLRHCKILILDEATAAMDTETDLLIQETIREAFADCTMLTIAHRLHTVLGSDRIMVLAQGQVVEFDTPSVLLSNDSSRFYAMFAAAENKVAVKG
Method: as §1, §2, §3

Recombinant human PDE5 = target: T3, Recombinant human PDE5 (Homo sapiens, UniProt O76074); assay: Inhibition of PDE5-mediated enzymatic breakdown of cGMP; format: biochemical; conditions: for Ki: Cheng-Prusoff; for [PDE5-inhibition]/[cGMP-efflux inhibition]: ratio between IC50-values
T3 construct: purchased Sigma-Aldrich
Method: as §4
Quantification of cAMP/AMP, cGMP/GMP and pentoxifylline in PDE- and intracellular access experiments were performed with liquid chromatography tandem mass spectrometry (LC–MS/MS). Preparation of samples for LC–MS/MS-analysis is described in paragraphs above. […] For GMP the method was linear from 2 nM to at least 2000 nM (r^2 > 0.998), and 10 nM to at least 5000 nM for pentoxifylline (r^2 > 0.998).
Analysis and graph production were performed in SigmaPlot 14.0 (Systat Software, San Jose, CA, USA.). Ability to inhibit the different elimination pathways, enzymes and efflux pumps, were calculated as IC50-values, as according to Chou. Ki-values were obtained by using the methods described by Cheng and Prustoff. Measurement of intracellular concentrations of drugs were adjusted for protein concentrations in each sample. The incubation concentrations were also adjusted for protein concentration in each sample to evaluate the access in percentage. Analysis of variance (ANOVA) with Holm-Sidak multiple comparison post-hoc test was performed to evaluate changes in IC50-values compared to baseline (37 °C) for all elimination pathways. The same analysis was performed for intracellular concentrations of pentoxifylline during hypothermia compared to baseline (37 °C). When data was not normally distributed ANOVA on ranks and Dunn`s post hoc test was performed. Data are presented as mean ± standard error of the mean (SEM). p-values were considered significant when < 0.05.

## CC(=O)CCCCn1c(=O)c2c(ncn2C)n(C)c1=O [pentoxifylline]
[1]
  clinical serum concentrations: 1 to 10 µM
ABCC4; 28 °C
  Ki: 0.918 ± 0.465 µM
  [cAMP-efflux inhibition]/[cGMP-efflux inhibition]: 2.27
  IC50: 1.93 ± 1.11 µM
ABCC4; 32 °C
  Ki: 1.16 ± 0.526 µM
  [cAMP-efflux inhibition]/[cGMP-efflux inhibition]: 2.78
  IC50: 2.01 ± 0.819 µM
ABCC4; 34 °C
  Ki: 2.03 ± 1.46 µM
  [cAMP-efflux inhibition]/[cGMP-efflux inhibition]: 4.04
  IC50: 3.61 ± 2.59 µM
ABCC4; 37 °C
  Ki: 0.805 ± 0.343 µM
  [cAMP-efflux inhibition]/[cGMP-efflux inhibition]: 2.50
  IC50: 1.33 ± 0.566 µM
ABCC4; temperatures below 28 °C (24 and 20 °C)
  Inhibition of cAMP-efflux (ABCC4-activity): no inhibition
Recombinant human PDE3; 20 °C
  IC50: 31 ± 9.47 µM
  Ki: 1.42 ± 0.434 µM
  [PDE3-inhibition]/[PDE5-inhibition]: 0.788
Recombinant human PDE3; 24 °C
  IC50: 29.2 ± 4.72 µM
  Ki: 1.34 ± 0.216 µM
  [PDE3-inhibition]/[PDE5-inhibition]: 1.16
Recombinant human PDE3; 28 °C
  IC50: 22.4 ± 6.36 µM
  Ki: 1.02 ± 0.291 µM
  [PDE3-inhibition]/[PDE5-inhibition]: 0.920
  [PDE3-inhibition]/[cAMP-efflux inhibition]: 11.6
Recombinant human PDE3; 32 °C
  IC50: 26.7 ± 4.7 µM
  Ki: 1.22 ± 0.215 µM
  [PDE3-inhibition]/[PDE5-inhibition]: 1.72
  [PDE3-inhibition]/[cAMP-efflux inhibition]: 13.3
Recombinant human PDE3; 34 °C
  IC50: 14.2 ± 1.51 µM
  Ki: 0.651 ± 0.069 µM
  [PDE3-inhibition]/[PDE5-inhibition]: 1.33
  [PDE3-inhibition]/[cAMP-efflux inhibition]: 3.94
Recombinant human PDE3; 37 °C
  IC50: 15.8 ± 4.25 µM
  Ki: 0.723 ± 0.195 µM
  [PDE3-inhibition]/[PDE5-inhibition]: 2.05
  [PDE3-inhibition]/[cAMP-efflux inhibition]: 11.9
ABCC5; 20 °C
  IC50: 0.388 ± 0.07 µM
ABCC5; 24 °C
  IC50: 0.502 ± 0.315 µM
  Ki: 0.32 ± 0.183 µM
ABCC5; 28 °C
  IC50: 0.851 ± 0.281 µM
  Ki: 0.481 ± 0.159 µM
ABCC5; 32 °C
  IC50: 0.724 ± 0.206 µM
  Ki: 0.409 ± 0.116 µM
ABCC5; 34 °C
  IC50: 0.893 ± 0.401 µM
  Ki: 0.505 ± 0.226 µM
ABCC5; 37 °C
  IC50: 0.531 ± 0.338 µM
  Ki: 0.3 ± 0.191 µM
Recombinant human PDE5; 20 °C
  IC50: 39.4 ± 10.9 µM
  Ki: 10 ± 2.78 µM
  [PDE5-inhibition]/[cGMP-efflux inhibition]: 102
Recombinant human PDE5; 24 °C
  IC50: 25.2 ± 6.57 µM
  Ki: 6.4 ± 1.67 µM
  [PDE5-inhibition]/[cGMP-efflux inhibition]: 50.2
Recombinant human PDE5; 28 °C
  IC50: 24.3 ± 5.58 µM
  Ki: 6.17 ± 1.42 µM
  [PDE5-inhibition]/[cGMP-efflux inhibition]: 28.6
Recombinant human PDE5; 32 °C
  IC50: 15.5 ± 0.753 µM
  Ki: 3.94 ± 0.191 µM
  [PDE5-inhibition]/[cGMP-efflux inhibition]: 21.4
Recombinant human PDE5; 34 °C
  IC50: 10.7 ± 1.92 µM
  Ki: 2.71 ± 0.487 µM
  [PDE5-inhibition]/[cGMP-efflux inhibition]: 12.0
Recombinant human PDE5; 37 °C
  IC50: 7.7 ± 0.265 µM
  Ki: 1.95 ± 0.067 µM
  [PDE5-inhibition]/[cGMP-efflux inhibition]: 14.5
